Assay results from PMC3050645 (Journal of the American Chemical Society, 2010).

Molecular target: Chlorite dismutase (Cld) (Dechloromonas aromatica (nom. nud.), UniProt Q47CX0)
Assay: UV/vis Soret titration, hyperbolic fit
Assay type: binding

Chain of Chlorite dismutase (Cld) (Q47CX0 35-282): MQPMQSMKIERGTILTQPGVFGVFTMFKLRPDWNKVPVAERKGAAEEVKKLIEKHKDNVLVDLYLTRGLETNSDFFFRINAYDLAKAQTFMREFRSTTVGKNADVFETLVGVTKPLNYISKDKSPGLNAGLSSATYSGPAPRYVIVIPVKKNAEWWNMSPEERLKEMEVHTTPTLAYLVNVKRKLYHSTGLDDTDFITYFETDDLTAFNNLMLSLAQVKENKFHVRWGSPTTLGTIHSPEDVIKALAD

## c1c[nH]cn1 [Imidazole]
  Kd: 7.6 ± 0.2 µM

## N#CS [KSCN]
  Kd: 74 ± 2 µM

## O=NO [NaNO2]
  Kd: 770 ± 30 µM

## c1ccncc1 [Pyridine]
  Kd: 553 ± 8 µM
